# Assay results published in US20230151025A1, “SUBSTITUTED THIAZOLOPYRIDINES, SALTS THEREOF AND THEIR USE AS HERBICIDALLY ACTIVE SUBSTANCES” (Bayer Aktiengesellschaft, priority 2020, published 2023).
# Test system: Matricaria inodora (MATIN)
# Experiment: Herbicidal pre-emergence action (A), 1280 g/ha
# Assay type: in vivo
# Conditions: visual grading after ca. 3 weeks vs untreated controls
# Excerpt: (§1) ABUTH: Abutilon theophrasti AGSTE: Agrostis tenuis ALOMY: Alopecurus myosuroides AMARE Amaranthus retroflexus DIGSA: Digitaria sanguinalis ECHCG: Echinochloa crus-galli KCHSC: Kochia scoparia LOLRI: Lolium rigidum MATIN: Matricaria inodora POAAN: Poa annua POLCO: Polygonum convolvulus SETVI: Setaria viridis STEME: Stellaria media VERPE: Veronica persica VIOTR: Viola tricolor
# (§2) Seeds of mono- and dicotyledonous weed plants were sown in plastic pots (double sowings with one species of mono- and one species of dicotyledonous weed plants per pot), in sandy loam, and covered with soil. The compounds according to the invention, formulated in the form of wettable powders (WP) or as emulsifiable concentrates (EC), were applied to the surface of the covering soil as aqueous suspension or emulsion, with the addition of 0.5% of an additive, at an application rate of 600 l of water per hectare (converted). Following treatment, the pots were placed in a greenhouse and kept under optimum growth conditions for the test plants. The visual grading of the damage to the test plants was carried out after ca. 3 weeks in comparison to untreated controls (herbicidal effect in percent (%): 100% effect=plants have died off, 0% effect=as control plants).
# (§3) Tables A1 to A12, below, show the effects of selected compounds of the general formula (I) according to table 1 on various harmful plants and an application rate corresponding to 1280 g/ha obtained by the experimental procedure mentioned above.
row,SMILES,herbicidal effect MATIN [%]
1,Cc1cc2scnc2nc1-c1c(C)sc(C)c1C [Example I-199],90

# Test system: Poa annua (POAAN)
# Experiment: Herbicidal pre-emergence action (A), 1280 g/ha
# Assay type: in vivo
# Conditions: visual grading after ca. 3 weeks vs untreated controls, 100% = plants have died off, 0% = as control plants
# Excerpt: as §1, §2, §3
row,SMILES,"POAAN, herbicidal effect in percent (%)"
1,Cc1cc2sc(Cc3ccccc3F)nc2nc1-c1ccccc1 [Example I-056],100
2,Cc1cc2sc(Cc3ccccc3F)nc2nc1-c1ccccc1F [Example I-073],100
3,Cc1cc2sc(S(C)(=O)=O)nc2nc1-c1ccccc1 [Example I-080],100

# Test system: Setaria viridis (SETVI)
# Experiment: Herbicidal pre-emergence action (A), 1280 g/ha
# Assay type: in vivo
# Conditions: visual grading after ca. 3 weeks vs untreated controls
# Excerpt: as §1, §2, §3
row,SMILES,herbicidal effect SETVI [%]
1,CCc1cc2sc(OC)nc2nc1-c1ccccc1OC [Example I-097],100
2,CCc1cc2sc(SC)nc2nc1-c1ccccc1C [Example I-106],100

# Test system: Stellaria media (STEME)
# Experiment: Herbicidal pre-emergence action (A), 1280 g/ha
# Assay type: in vivo
# Conditions: visual grading after ca. 3 weeks vs untreated controls
# Excerpt: as §1, §2, §3
row,SMILES,herbicidal effect STEME [%]
1,Cc1nc2nc(-c3ccccc3F)ccc2s1 [Example I-019],90
2,Cc1cc2sc(Cc3ccccc3F)nc2nc1-c1ccccc1 [Example I-056],100
3,Cc1cc2sc(Cc3ccccc3F)nc2nc1-c1ccccc1F [Example I-073],90
4,Cc1cc2sc(S(C)(=O)=O)nc2nc1-c1ccccc1 [Example I-080],100
5,CCc1cc2sc(SC)nc2nc1-c1ccccc1C [Example I-106],100
6,"Fc1ccccc1-c1nc2nc(S)sc2cc1Br [Example I-156, 6-bromo-5-(2-fluorophenyl)thiazolo[4,5-b]pyridine-2-thiol]",90
7,CCc1cc2sc(S)nc2nc1-c1ccccc1 [Example I-162],90
8,Cc1cc2scnc2nc1-c1c(C)sc(C)c1C [Example I-199],100
9,Cc1cnsc1-c1nc2ncsc2cc1Br [Example I-202],100

# Test system: Veronica persica (VERPE)
# Experiment: Herbicidal pre-emergence action (A), 1280 g/ha
# Assay type: in vivo
# Conditions: visual grading after ca. 3 weeks vs untreated controls
# Excerpt: as §1, §2, §3
row,SMILES,herbicidal effect VERPE [%]
1,CCc1cc2sc(S)nc2nc1-c1ccccc1 [Example I-162],90

# Test system: Amaranthus retroflexus (AMARE)
# Experiment: Herbicidal post-emergence action (B), 1280 g/ha
# Assay type: in vivo
# Conditions: rated visually after about 3 weeks vs untreated controls
# Excerpt: as §1
# (§4) Seeds of mono- and dicotyledonous weed plants were placed in plastic pots in sandy loam soil (doubly sown with in each case one species of mono- or dicotyledonous weed plants per pot), covered with soil and cultivated in a greenhouse under controlled growth conditions. 2 to 3 weeks after sowing, the test plants were treated at the one-leaf stage. The compounds of the invention, formulated in the form of wettable powders (WP) or as emulsion concentrates (EC), were applied onto the green parts of the plants as aqueous suspension or emulsion with addition of 0.5% additive at a water application rate of 600 liters per hectare (converted). After the test plants had been kept in the greenhouse under optimum growth conditions for about 3 weeks, the activity of the preparations was rated visually in comparison to untreated controls. For example, 100% activity=the plants have died, 0% activity=like control plants.
# (§5) Tables B1 to B12, below, show the effects of selected compounds of the general formula (I) according to table 1 on various harmful plants and an application rate corresponding to 1280 g/ha obtained by the experimental procedure mentioned above.
row,SMILES,herbicidal activity AMARE [%]
1,COc1nc2nc(-c3ccccc3)c(C)cc2s1 [Example I-006],90
2,O=C(O)CNc1nc2nc(-c3ccccc3F)c(Br)cc2s1 [Example I-052],100
3,Cc1cc2sc(Cc3ccccc3F)nc2nc1-c1ccccc1 [Example I-056],100
4,C=CCNC(=O)CNc1nc2nc(-c3ccccc3F)c(Br)cc2s1 [Example I-067],90
5,Cc1nc2nc(-c3ccc(F)cc3)c(C)cc2s1 [Example I-090],100
6,"Fc1ccccc1-c1nc2nc(S)sc2cc1Br [Example I-156, 6-bromo-5-(2-fluorophenyl)thiazolo[4,5-b]pyridine-2-thiol]",100
7,CCc1cc2sc(S)nc2nc1-c1ccccc1 [Example I-162],90
8,Cc1cc2scnc2nc1-c1c(C)sc(C)c1C [Example I-199],100
9,Cc1cnsc1-c1nc2nc(S)sc2cc1Br [Example I-208],100
10,Cc1ncsc1-c1nc2nc(S)sc2cc1Br [Example I-209],90

# Test system: Kochia scoparia (KCHSC; Bassia scoparia)
# Experiment: Herbicidal post-emergence action (B), 1280 g/ha
# Assay type: in vivo
# Conditions: not given
# Excerpt: as §1, §4, §5
row,SMILES,herbicidal effect KCHSC [%]
1,Cc1cc2sc([S+](C)[O-])nc2nc1-c1cccc(F)c1 (stereo not shown) [Example I-039],90
2,CCc1cc2sc(S)nc2nc1-c1ccccc1 [Example I-162],90

# Test system: Poa annua (POAAN)
# Experiment: Herbicidal post-emergence action (B), 1280 g/ha
# Assay type: in vivo
# Conditions: rated visually after about 3 weeks vs untreated controls
# Excerpt: as §1, §4, §5
row,SMILES,herbicidal activity POAAN [%]
1,Cc1cc2sc(Cc3ccccc3F)nc2nc1-c1ccccc1 [Example I-056],100

# Test system: Stellaria media (STEME)
# Experiment: Herbicidal post-emergence action (B), 1280 g/ha
# Assay type: in vivo
# Conditions: not given
# Excerpt: as §1, §4, §5
row,SMILES,herbicidal effect STEME [%]
1,Cc1nc2nc(-c3ccccc3F)ccc2s1 [Example I-019],90
2,Cc1cc2sc([S+](C)[O-])nc2nc1-c1cccc(F)c1 (stereo not shown) [Example I-039],90
3,Cc1nc2nc(-c3ccc(F)cc3)c(C)cc2s1 [Example I-090],90
4,CCc1cc2sc(OC)nc2nc1-c1ccccc1OC [Example I-097],100

# Test system: Veronica persica (VERPE)
# Experiment: Herbicidal post-emergence action (B), 1280 g/ha
# Assay type: in vivo
# Conditions: not given
# Excerpt: as §1, §4, §5
row,SMILES,herbicidal effect VERPE [%]
1,COc1nc2nc(-c3ccccc3)c(C)cc2s1 [Example I-006],90
2,Cc1cc2sc(S(C)(=O)=O)nc2nc1-c1ccccc1 [Example I-080],90
3,CCc1cc2sc(OC)nc2nc1-c1ccccc1OC [Example I-097],100
4,CCOc1nc2nc(-c3ccccc3F)c(Br)cc2s1 [Example I-101],90
5,CCc1cc2sc(S)nc2nc1-c1ccccc1 [Example I-162],100
6,Cc1cnsc1-c1nc2nc(S)sc2cc1Br [Example I-208],90
7,Cc1ncsc1-c1nc2nc(S)sc2cc1Br [Example I-209],90
